The source of these data is ChEMBL document CHEMBL4266017, “Colony-wise Analysis of a Theonella swinhoei Marine Sponge with a Yellow Interior Permitted the Isolation of Theonellamide I” (J Nat Prod, 2018).

SMILES strings stand for the structures.

The experiment deals with HeLa. As to the kind of experiment: Cytotoxicity against human HeLa cells assessed as decrease in cell viability after 72 hrs by XTT assay. The experiment is classed as functional, cell-based. On the technique in general: Formazan colour is commonly taken as a measure of viable cells.

A word on the IC50: it is the concentration that inhibits the measured activity by half. Regarding `CC(/C=C/c1ccccc1)=C\[C@H](O)[C@@H]1CC(=O)N[C@@H](CO)C(=O)N[C@H]2C[n+]3cc(n([C@@H]4OC[C@H](O)[C@H](O)[C@H]4O)c3)C[C@H](NC(=O)CCC[C@@H](C(=O)[O-])NC(=O)[C@@H](O)CNC(=O)[C@H](Cc3ccc(Br)cc3)NC(=O)[C@H]([C@@H](O)C(N)=O)NC(=O)[C@H](CC(N)=O)NC2=O)C(=O)N[C@@H]([C@H](C)O)C(=O)N[C@@H](CO)C(=O)N[C@@H](Cc2ccccc2)C(=O)N1`, the IC50 was determined as 1.9 µM.
